Experimental data taken from paper PMC5618418, “Pharmacokinetics of Jaspine B and Enhancement of Intestinal Absorption of Jaspine B in the Presence of Bile Acid in Rats” (Marine Drugs, 2017).

Experiments:
[1] = Metabolic stability in rat liver microsomes; assay type: in vitro ADME; conditions: 1 μM, rat liver microsomes, NADPH-generating system, 60 min, 37 °C
Procedure: Jaspine B (1 μM) was reconstituted in 100 mM potassium phosphate buffer (pH 7.4) containing 0.25 mg of RLMs and was pre-incubated for 5 min at 37 °C. The reaction was initiated by adding an NADPH-generating system (1.3 mM β-NADP, 3.3 mM glucose-6-phosphate, 3.3 mM MgCl2, and 1.0 unit/mL glucose-6-phosphate dehydrogenase) and then incubated (final volume 100 μL) for 0, 15, 30, and 60 min at 37 °C in a shaking water bath. The reaction was stopped by placing the incubation tubes on ice and adding 200 μL of ice-cold acetonitrile containing 0.5 ng/mL of berberine. After vortexing for 10 min and centrifugation at 13,200 rpm for 5 min, 2 μL of the supernatant was injected directly into the LC-MS/MS system.

in vitro = in vitro ADME, rat
Procedure: For the measurement of the effect of TC on the tight junction of biological membranes, the permeability of 50 μM Lucifer yellow, a marker of paracellular permeation, was measured in the presence of TC (0, 0.1, 1, 10, 100 mM). Prior to the experiment, ileal segments from SD rats (about 20 cm) were placed in the chambers and were submerged in fresh, prewarmed (37 °C) HBSS for 15 min for acclimatization. The chambers were continuously bubbled with carbogen gas (5% CO2/ 95% O2) during the experiment. The experiments began by replacing the HBSS with HBSS containing 50 μM Lucifer yellow and various concentrations of TC on the apical side (A) and adding fresh HBSS to the basal side (B). Aliquots (400 μL) of media were withdrawn from the receiver compartment (B) after 0, 20, 40, 60, and 80 min, and the volume of liquid in the receiver compartment was replenished with fresh, prewarmed HBSS after each sampling. Aliquots (200 μL) of all samples were used for the determination of Lucifer yellow concentration. The fluorescence of Lucifer yellow in the samples was measured using a fluorescence spectrophotometer (Infinite 200 PRO, Tecan, Switzerland) with excitation at 425 nm and emission at 535 nm.
A to B and B to A permeability of Jaspine B was measured in the presence of TC and rat bile. One mL of HBSS containing 50 μM Jaspine B and 10 mM TC or 20% bile was added to the donor side and 1 mL of preheated fresh HBSS was added to the receiver side. Aliquots (400 μL) of media were withdrawn at 0, 20, 40, 60, and 80 min from the receiver compartment as described above. Aliquots (50 μL) of all samples were stored at −80 °C until analysis.
Aliquots (50 μL) of all samples were added to 250 μL of acetonitrile containing 0.5 ng/mL of berberine. After vortexing for 10 min and centrifugation at 13,200 rpm for 5 min, 2 μL of the supernatant was injected directly into the LC-MS/MS system.
The apparent permeability (Papp) of the drug was calculated by dividing the initial drug transport rate (dQ/dt, pmol/min) by the initial drug concentration in the donor compartment of the insert (Co) multiplied by the surface area of the insert (A, cm^2): (3) Papp=dQ/dt×1/ACo

| percentage remaining [1] | increase of permeability caused by tight junction opening (in vitro) | permeability change (in vitro) | Compound |
| --- | --- | --- | --- |
| 63.4% |  |  | CN(C)C(=N)N=C(N)N [metformin, reference compound] |
|  | ~ 2.8 fold | sharp increase | Lucifer yellow [reference compound] |
